Legend:
rat CYP3A2 = assay: Midazolam sleep time in rats; type: in vivo; conditions: MZ 50 mg/kg i.p.
Description: Male Sprague-Dawley rats (Sasco, Omaha) weighing between 210 to 290 grams were used for all studies. The animals were exposed to 12 hour light/dark cycle and fed Purina rat chow and tap water ad libitum.
Sleep time was measured after i.p. injection of 50 mg/kg MZ (Hoffman-La Roche, Nutley, N.J.) at 0 (day 1), 24 (day 2) and […]. The volume of the injection was from 2.0 to 2.4 ml/rat. […] […] Control rats received saline only. Total volume injection was 0.1 ml in saline.

CYP3A2 = assay: Erythromycin demethylation (ED) in liver microsomes; type: in vivo, rat
Description: Sleep time was measured after i.p. injection of 50 mg/kg MZ (Hoffman-La Roche, Nutley, N.J.) at 0 (day 1), 24 (day 2) and 48 h (day 4). The volume of the injection was from 2.0 to 2.4 ml/rat. […] The rats were treated with 0.25, 0.50 or 1.00 mg antisense ODN i.p. immediately after the animal had regained its righting reflex determined at 0 and 24 h. Control rats received saline only. Total volume injection was 0.1 ml in saline.
Microsomes were prepared, as described by Franklin and Estabrook (cited above) for determination of enzyme level and activity.
Erythromycin demethylation (ED) was used a measure of CYP3A2 enzymatic activity (Gonzalez, Pharmacol. Rev. 40:243-87, 1989). Activity was recorded as micromoles of formaldehyde per milligram of protein per minute.

Substance	MZ ST (midazolam sleep time) (rat CYP3A2; 1000 μg/day i.p.) [min]	ED (erythromycin demethylase activity) (CYP3A2; 1000 μg/day i.p.) [μmol HCOH/mg/min]	MZ ST (midazolam sleep time) (rat CYP3A2; 100 μg/day i.p.) [min]	ED (erythromycin demethylase activity) (CYP3A2; 100 μg/day i.p.) [μmol HCOH/mg/min]
ATGMYC/PS: PS DNA myc control, SEQ ID NO: 44, 5′-ACGTTGAGGGGCAUCGTCC-3′ (DNA, all phosphorothioate, T or U not given here)	22.8 ± 1.3	113	–	–
REV3A2/PMO: PMO reverse control, SEQ ID NO: 43, 5′-UACCUCGACGAAAGUCGAGAGU-3′ (all phosphorodiamidate morpholino (PMO), T or U not given here)	–	–	20.3 ± 1.3	99
AUGM:YC/PMO: PMO myc control, SEQ ID NO: 44, 5′-ACGUUGAGGGGCAUCGUCC-3′ (all phosphorodiamidate morpholino (PMO), T or U not given here)	–	–	20.6 ± 0.6	110
